Drawing on patent US7855290B2, “Pyridine derivatives and pyrimidine derivatives (3)” (Eisai R&D Management Co., Ltd., priority 2005, dated 2010), this text covers IC50 for 17 molecules.

Assay [1] has as its system Human gastric cancer cells (MKN-45). The experiment in a line: Inhibitory activity against the proliferation of human gastric cancer cells (MKN-45). It is filed as cell-based. The conditions noted are these: 72 h, MKN-45, 1% FBS RPMI1640, 3 days, Cell Counting Kit-8. In short, it runs like this:
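MKN-45 cells seeded overnight in RPMI1640 with 1% FBS, then exposed to compound for 3 days at 37° C, 5% CO2. Viability read with CCK-8 after about 1.5 hrs, absorbance at 450 nm (reference 660 nm).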
On the technique in general: Tetrazolium assays rely on reduction of a dye to a coloured formazan, in cell work by metabolically active cells.

In assay [2] the target is T1, His6-HGFR (HGFR cytoplasmic domain) (Homo sapiens, UniProt P08581).
T1 construct: made in house; host or cells: Sf9 insect cells (Spodoptera frugiperda), baculovirus, pFastBac-HT vector
T1 sequence (P08581 956-1390 limits assumed): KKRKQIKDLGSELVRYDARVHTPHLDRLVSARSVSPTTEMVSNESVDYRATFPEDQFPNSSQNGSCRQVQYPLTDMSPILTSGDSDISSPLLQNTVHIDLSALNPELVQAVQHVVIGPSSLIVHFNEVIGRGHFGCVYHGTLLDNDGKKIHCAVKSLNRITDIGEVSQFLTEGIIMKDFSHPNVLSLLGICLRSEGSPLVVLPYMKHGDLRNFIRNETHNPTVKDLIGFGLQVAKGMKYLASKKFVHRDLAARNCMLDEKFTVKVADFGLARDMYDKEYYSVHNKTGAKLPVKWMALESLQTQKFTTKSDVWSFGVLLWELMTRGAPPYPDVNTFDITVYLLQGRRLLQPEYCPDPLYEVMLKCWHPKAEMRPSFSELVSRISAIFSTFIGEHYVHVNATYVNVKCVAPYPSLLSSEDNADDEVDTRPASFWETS
The experiment in a line: Inhibitory activity against HGFR tyrosine kinase activity (HTRF). The conditions noted are these: biotin-poly(GT), ATP, 30° C. 10 min. The assay is classed as biochemical. In short, it runs like this: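 Sf9-expressed, Ni-NTA-purified N-terminal His6-tagged HGFR cytoplasmic domain (from Lys974), 30 ng, phosphorylates 250 ng biotin-poly(GT) in Hepes pH 7.4 with MgCl2, MnCl2 and Na3VO4. Reaction started with 4 μM ATP stock, run 10 min at 30° C, stopped with EDTA. Phosphotyrosine is detected by HTRF.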
(TR-FRET usually uses a lanthanide donor and a delayed reading to cut background.)

Structures are written as SMILES.

In the case of `O=C(Nc1cc(Oc2cc(F)c(NC(=O)C3(C(=O)Nc4ccc(F)cc4)CC3)cc2F)ccn1)N1CC(CN2CCC2)C1` [Example 95, N-{4-[(2-{[3-(Azetidin-1-ylmethyl)azetidin-1-ylcarbonyl]amino}pyridin-4-yl)oxy]-2,5-difluorophenyl}-N′-(4-fluorophenyl)cyclopropane-1,1-dicarboxamide], the IC50 in assay [1] worked out at 5.4 nM; in assay [2], 50 nM.
`CN(C)CC1CCN(C(=O)Nc2cc(Oc3ccc(NC(=O)C4(C(=O)Nc5ccc(F)cc5)CC4)cc3F)ccn2)CC1` [Example 5, N-[4-({2-[({4-[(Dimethylamino)methyl]piperidin-1-yl}carbonyl)amino]pyridin-4-yl}oxy)-3-fluorophenyl]-N′-(4-fluorophenyl)cyclopropane-1,1-dicarboxamide]: the IC50 in assay [1] is 19 nM; in assay [2], 60 nM.
For the molecule `O=C(Nc1cc(Oc2ccc(NC(=O)C3(C(=O)Nc4ccc(F)cc4)CC3)cc2F)ccn1)N1CC[C@H](O)C1` [Example 88, N-(3-Fluoro-4-{[2-({[(3S)-3-hydroxypyrrolidin-1-yl]carbonyl}amino)pyridin-4-yl]oxy}phenyl)-N′-(4-fluorophenyl)cyclopropane-1,1-dicarboxamide], the IC50 turned out to be 18 nM in assay [1] and 16 nM in assay [2].
Take `O=C(Nc1cc(Oc2ccc(NC(=O)C3(C(=O)Nc4ccc(F)cc4)CC3)c(F)c2)ccn1)N1CC[C@@H](O)C1` [Example 87, N-(2-Fluoro-4-{[2-({[(3R)-3-hydroxypyrrolidin-1-yl]carbonyl}amino)pyridin-4-yl]oxy}phenyl)-N′-(4-fluorophenyl)cyclopropane-1,1-dicarboxamide]: the IC50 in assay [1] worked out at 14 nM; in assay [2], 9 nM.
The like results for `O=C(Nc1cc(Oc2ccc(NC(=O)C3(C(=O)Nc4ccc(F)cc4)CC3)c(F)c2)ccn1)N1CC[C@H](O)C1` [Example 89, N-(2-Fluoro-4-{[2-({[(3S)-3-hydroxypyrrolidin-1-yl]carbonyl}amino)pyridin-4-yl]oxy}phenyl)-N′-(4-fluorophenyl)cyclopropane-1,1-dicarboxamide] were, in that order, 18 nM and 13 nM.
As to `O=C(Nc1cc(Oc2cc(F)c(NC(=O)C3(C(=O)Nc4ccc(F)cc4)CC3)cc2F)ccn1)N1CCC1` [Example 90, N-[4-({2-[(Azetidin-1-ylcarbonyl)amino]pyridin-4-yl}oxy)-2,5-difluorophenyl]-N′-(4-fluorophenyl)cyclopropane-1,1-dicarboxamide], the IC50 was determined as 5 nM in assay [1] and 12 nM in assay [2].
With `CN(C)CC1CN(C(=O)Nc2cc(Oc3cc(F)c(NC(=O)C4(C(=O)Nc5ccc(F)cc5)CC4)cc3F)ccn2)C1` [Example 93, N-[2,5-Difluoro-4-({2-[({3-[(dimethylamino)methyl]azetidin-1-yl]carbonyl)amino]pyridin-4-yl}oxy)phenyl]-N′-(4-fluorophenyl)cyclopropane-1,1-dicarboxamide], the IC50 is 5.2 nM in assay [1] and 42 nM in assay [2].
For the molecule `O=C(Nc1cc(Oc2ccc(NC(=O)C3(C(=O)Nc4ccc(F)cc4)CC3)cc2F)ccn1)N1CC(CO)C1` [Example 81, N-(3-Fluoro-4-{[2-({[3-(hydroxymethyl)azetidin-1-yl]carbonyl}amino)pyridin-4-yl]oxy}phenyl)-N′-(4-fluorophenyl)cyclopropane-1,1-dicarboxamide], the IC50 in assay [1] worked out at 17 nM; in assay [2] it was 19 nM.
Take `O=C(Nc1cc(Oc2ccc(NC(=O)C3(C(=O)Nc4ccc(F)cc4)CC3)cc2F)ccn1)N1CCC(O)CC1` [Example 84, N-[3-Fluoro-4-[(2-{[(4-hydroxypiperidin-1-yl)carbonyl]amino}pyridin-4-yl)oxy]phenyl}-N′-(4-fluorophenyl)cyclopropane-1,1-dicarboxamide]: the IC50 worked out at 19 nM in assay [1] and 9 nM in assay [2].
Turning to `O=C(Nc1cc(Oc2cc(F)c(NC(=O)C3(C(=O)Nc4ccc(F)cc4)CC3)cc2F)ccn1)N1CC(CO)C1` [Example 96, N-(2,5-Difluoro-4-{[2-({[3-(hydroxymethyl)azetidin-1-yl]carbonyl}amino)pyridin-4-yl]oxy}phenyl)-N′-(4-fluorophenyl)cyclopropane-1,1-dicarboxamide], the results for the IC50 in assay [1] and in assay [2] were 3.8 nM and 17 nM, respectively.
The like results for `O=C(Nc1cc(Oc2ccc(NC(=O)C3(C(=O)Nc4ccc(F)cc4)CC3)c(F)c2)ccn1)N1CCC(O)CC1` [Example 82, N-[2-Fluoro-4-[(2-{[(4-hydroxypiperidin-1-yl)carbonyl]amino}pyridin-4-yl)oxy]phenyl}-N′-(4-fluorophenyl)cyclopropane-1,1-dicarboxamide] were, in that order, 21 nM and 16 nM.
Take `O=C(Nc1cc(Oc2ccc(NC(=O)C3(C(=O)Nc4ccc(F)cc4)CC3)cc2F)ccn1)N1CC[C@@H](O)C1` [Example 86, N-(3-Fluoro-4-{[2-({[(3R)-3-hydroxypyrrolidin-1-yl]carbonyl}amino)pyridin-4-yl]oxy}phenyl)-N′-(4-fluorophenyl)cyclopropane-1,1-dicarboxamide]: the IC50 in assay [1] turned out to be 15 nM; in assay [2], 12 nM.
Take `O=C(Nc1cc(Oc2ccc(NC(=O)C3(C(=O)Nc4ccc(F)cc4)CC3)cc2F)ccn1)N1CCC(CO)CC1` [Example 85, N-(3-Fluoro-4-{[2-({[-4-(hydroxymethyl)piperidin-1-yl]carbonyl}amino)pyridin-4-yl]oxy}phenyl)-N′-(4-fluorophenyl)cyclopropane-1,1-dicarboxamide]: the IC50 in assay [1] and in assay [2] was 15 nM throughout.
Regarding `CN(C)CC1CN(C(=O)Nc2cc(Oc3cc(F)c(NC(=O)C4(C(=O)Nc5ccc(F)cc5)CC4)cc3F)ncn2)C1` [Example 98, N-[4-({4-[({3-[(Dimethylamino)methyl]azetidin-1-yl}carbonyl)amino]pyrimidin-6-yl}oxy)-2,5-difluorophenyl]-N′-(4-fluorophenyl)cyclopropane-1,1-dicarboxamide], the IC50 in assay [1] stood at 23 nM; in assay [2] it was 67 nM.
Regarding `CN1CCN(C2CCN(C(=O)Nc3cc(Oc4cc(F)c(NC(=O)C5(C(=O)Nc6ccc(F)cc6)CC5)cc4F)ccn3)CC2)CC1` [Example 92, N-(2,5-Difluoro-4-{[2-({[4-(4-methylpiperazin-1-yl)piperidin-1-yl]carbonyl}amino)pyridin-4-yl]oxy}phenyl)-N′-(4-fluorophenyl)cyclopropane-1,1-dicarboxamide], the figures for the IC50 in assay [1] and in assay [2] were 4.9 nM and 47 nM, respectively.
The like results for `O=C(Nc1cc(Oc2ccc(NC(=O)C3(C(=O)Nc4ccc(F)cc4)CC3)c(F)c2)ccn1)N1CCC(CO)CC1` [Example 83, N-(2-Fluoro-4-{[2-({[4-(hydroxymethyl)piperidin-1-yl]carbonyl}amino)pyridin-4-yl]oxy}phenyl)-N′-(4-fluorophenyl)cyclopropane-1,1-dicarboxamide] were, in that order, 16 nM and 17 nM.
Consider `O=C(Nc1cc(Oc2cc(F)c(NC(=O)C3(C(=O)Nc4ccc(F)cc4)CC3)cc2F)ncn1)N1CC(O)C1` [Example 97, N-{2,5-Difluoro-4-[(4-{[(3-hydroxyazetidin-1-yl)carbonyl]amino}pyrimidin-6-yl)oxy]phenyl}-N′-(4-fluorophenyl)cyclopropane-1,1-dicarboxamide], for which the IC50 in assay [1] amounted to 38 nM; in assay [2], 21 nM.

For orientation: IC50 means the concentration needed to halve the response being measured. A lower IC50 goes with greater potency.
